Test results reported in patent US10066190B2, “Mild liquid detergent formulations” (Henkel IP & Holding GmbH, priority 2016, dated 2018).

System: human stratum corneum
Experiment: Corneosurfametry test
Text: Another method to measure the skin irritancy potential is corneosurfametry (CSM) test, a noninvasive quantitative test that measures the interaction between surfactants and human stratum corneum. ([…] et al., Dermatology 189: 152-156 (1994)). Corneosurfametry involves removing a few layers of skin using cyanoacrylate skin surface strippings, short contact time with surfactants followed by staining the samples with fuchian dyes. A […] barrier allows greater penetration of the stain, therefore giving a more intense color, which is measured using colorimetrically with L*a*b* color space. This method is predictive of both protein and lipid damage in the skin. CIM (Color Indicator of Mildness) values are obtained from a corneosurfametry test. In a comparative study, the higher the CIM value, the milder the surfactant formulation. The test surfactant solution can be a solution with 3% active surfactant, or a 10% dilution of a surfactant formulation/product which has a total surfactant concentration of about 10%-25%. Corneosurfametry involves removing a few layers of human skin from the volar forearm of healthy adults using skin surface strippings. The skin was collected with D-Squame tapes (for tests with neutral pH formulas) and with Book tape (for tests with high pH formulas). […] Once the tapes are dry, they were analyzed with spectrophotometer. […]

CIM: 36.84
Compound: CCCCCCCCCCCCOS(=O)(=O)[O-].[Na+] [1% SDS, SDS]
